Source: patent US8603990B2, “Grafted macromolecular conjugates of doxorubicin with anticancer activity and method of their preparation” (priority 2006, dated 2013)
In brackets after ≈: the same amount, converted by molar mass.

How the values were obtained:
[1] = system: mouse T cellular lymphoma EL4; conditions: for Mice surviving on the 70th day: end of experiment day 70
Description: The in vivo experiments involved a model of mouse T cellular lymphoma EL4, the experimental animals were mice (males) of the B/6 species that were subcutaneously implanted with 10^5 tumor cells on day 0. The conjugates were applied intravenously in a dose of 1×15 mg/kg of DOX equivalent. This single application was carried out on the ninth day after the tumor cells transplantation, i.e. at a time when the tumor was palpable, about approx. 400 mm^3 in size.

cathepsine B = cathepsine B (Homo sapiens, UniProt P07858); experiment: Degradation of grafted conjugates by cathepsine B; format: in vitro ADME; conditions: cathepsine B 5.10^−7 mol/l, pH 6, 37° C., 24 hours
Description: The degradation experiments were carried in a phosphate buffer (0.1 M phosphate buffer containing 0.05 M NaCl, pH 6) in the presence of cathepsine B or glutathione in the role of degradation agents, i.e. in the environment modeling intracellular environment (cytoplasm, endosome and secondary lysosome). The grafted polymeric conjugates were dissolved in the phosphate buffer in concentration of 50 mg/ml and immediately before the solutions were placed in a thermostat (37° C.) a stock solution of cathepsine B or glutathione was added to the solutions so that the final concentration of these agents in the incubation medium was 5.10^−7 mol/l and 3.10^−3 mol/l for cathepsine and glutathione, respectively. In predetermined intervals aliquot parts (200 μl) were sampled from the incubation solutions. The samples were desalinated in the PD-10 columns and lyophilized. The molecular weight of the degradation products was measured using the Shimadzu SIL-HT liquid chromatograph fitted with a differential refractometer (Shimadzu RID-10A) and multiangle light dispersion detector (DAWN EOS, Wyatt Technology, USA). The analysis was carried out in a Superose™ 6 column (300×10 mm) (Amersham Bioscience). […] The molecular weight and polydispersity of the copolymer was calculated using the Astra software. […]

Jurkat = experiment: In vitro cytotoxicity, Jurkat line; format: cell-based; conditions: Homo sapiens; Jurkat cells; repeated values per sample
[2] = system: SW620 (human colorectal carcinoma); experiment: In vitro cytotoxicity, SW620 line; format: cell-based; conditions: SW-620, SW620 cells, repeated values per sample
[3] = 1×15 mg/kg DOX equivalent i.v. on day 9

Row | Molecule | Anticancer effect [1, 3] | Weight decrease as a sign of toxicity [1, 3] | Mice surviving on the 70th day [1, 3] [%] | Molecular weight of degradation products (cathepsine B) | IC50 (Jurkat) [µg/mL] | IC50 [2] [µg/mL] | Survival: day of animal death or LTS (individual mice) ([1]; B/6 mice, EL 4 10^5 cells s.c. day 0, one i.v. dose 15 mg/kg DOX equivalent on day 9)
1 | poly(HPMA-co-MA-AH-NHNH2-MA-AH-NHN=DOX-co-MA-GFLG-NH—)-graft-[(GFLG)-poly(HPMA-co-MA-AH-NHNH2-co-MA-AH-NHN=DOX)] [Conjugate 1d] | very significant anticancer effect | no weight decrease | 88 | below the renal filtration limit | – | – | –
2 | COc1cccc2c1C(=O)c1c(O)c3c(c(O)c1C2=O)C[C@@](O)(C(=O)CO)C[C@@H]3O[C@H]1C[C@H](N)[C@H](O)[C@H](C)O1 [Dox, doxorubicin] | – | – | – | – | 0.119 (≈ 0.219 µM) | 0.003 (≈ 0.00552 µM) | –
3 | poly(HPMA-co-MA-AH-NHNH2-co-MA-AH-NHN=DOX-co-MA-AH-SS—)-graft-[(SS)-poly(HPMA-co-MA-AH-NHNH2-MA-AH-NHN=DOX)] [Conjugate 3a] | very significant anticancer effect | – | 100 | – | – | – | LTS
